Where only a bound is given, the exact number is not on record here.

For orientation: EC50 means the concentration that produces a half-maximal response. The low end stands for an effect from little substance, the high end for a need for much substance.

One series has as its system HCV replicon. Description: HCV replicon luciferase assay. Format: cell-based. The note with it: Hepatitis C virus, Huh-7, 72 h. Here is the method:
The cell lines used to evaluate compounds consist of a human hepatocyte derived cell line (Huh-7) that constitutively expresses a genotype 1b (Con-1) HCV replicon or a genotype 1b (Con-1) HCV replicon with an asparagine replacing the cysteine at amino acid 316, or a genotype 2a (JFH-1) replicon, containing a Renilla luciferase reporter gene. These cells were maintained in Dulbecco's modified Eagle medium (DMEM) containing 10% FBS, 100 U/mL penicillin/streptomycin and 1.0 mg/mL G418.
To evaluate compound efficacy, titrated compounds were transferred to sterile 384-well tissue culture treated plates, and the plates were seeded with HCV replicon cells (50 μL at a density of 2.4×10^3 cells/well) in DMEM containing 4% FBS (final DMSO concentration at 0.5%). After 3 days incubation at 37° C., cells were analyzed for Renilla Luciferase activity using the EnduRen substrate (Promega cat #E6485) according to the manufacturer's directions. Briefly, the EnduRen substrate was diluted in DMEM and then added to the plates to a final concentration of 7.5 μM. The plates were incubated for at least 1 h at 37° C. then read on a Viewlux Imager (PerkinElmer) using a luminescence program. The 50% effective concentration (EC50) was calculated using the four-parameter logistic formula noted above.
Compound EC50 data is expressed as A: <100 nM; B=100-1000 nM; C>1000 nM).
For the compound `CCN(c1cc2oc(-c3ccc(F)cc3)c(C(=O)NC)c2cc1-c1cccc(C(=O)N2CCN(C(=O)OC(C)(C)C)C[C@@H]2C#N)c1)S(C)(=O)=O` [Compound 3001], the EC50 was less than 100 nM. The same measure, in the same setting: with `CCN(c1cc2oc(-c3ccc(F)cc3)c(C(=O)NC)c2cc1-c1cccc(C(=O)N2CCN(S(C)(=O)=O)C(C#N)C2)c1)S(C)(=O)=O` (stereo not shown) [Compound 3003] the figure was 25.2 nM.

The compound `CNC(=O)c1c(-c2ccc(F)cc2)oc2cc(N(CCF)S(C)(=O)=O)c(-c3cccc(C(=O)N4CCNC(=O)C45CCCC5)c3)cc12` [Compound 4026] displayed an EC50 of less than 100 nM.

The compound `CNC(=O)c1c(-c2ccc(F)cc2)oc2cc(N(CCF)S(C)(=O)=O)c(-c3cccc(C(=O)N4CCN(C(=O)N5CCOCC5)CC4)c3)cc12` [Compound 4004] came in with an EC50 of 1690 nM. Compound `CCOC(=O)CC1C(=O)NCCN1C(=O)c1cccc(-c2cc3c(C(=O)NC)c(-c4ccc(F)cc4)oc3cc2N(CCF)S(C)(=O)=O)c1` (stereo not shown) [Compound 4027] showed an EC50 greater than 1000 nM. The compound `CCN(c1cc2oc(-c3ccc(F)cc3)c(C(=O)NC)c2cc1-c1cccc(C(=O)N2CCN(C(=O)OC(C)(C)C)C[C@H]2C#N)c1)S(C)(=O)=O` [Compound 3002] showed a concentration for a half-maximal effect (EC50) of less than 100 nM. With `CNC(=O)c1c(-c2ccc(F)cc2)oc2cc(N(CCF)S(C)(=O)=O)c(-c3cccc(C(=O)N4CCN(c5nnnn5-c5ccccc5)[C@H](C)C4)c3)cc12` [Compound 4010], the 50% effective concentration (EC50) was less than 100 nM. Still for that read-out and setting: with `CNC(=O)c1c(-c2ccc(F)cc2)oc2cc(N(CCF)S(C)(=O)=O)c(-c3cccc(C(=O)N4CCN(C(=O)C(F)(F)F)CC4)c3)cc12` [Compound 4001] the figure was greater than 1000 nM. With `CNC(=O)c1c(-c2ccc(F)cc2)oc2cc(N(CCF)S(C)(=O)=O)c(-c3cccc(C(=O)N4CCN(/C(=N/C#N)c5ccccc5)CC4)c3)cc12` [Compound 4006], the EC50 was in the range of 100 to 1000 nM. The same measure, in the same setting: the value for `CNC(=O)c1c(-c2ccc(F)cc2)oc2cc(N(CCF)S(C)(=O)=O)c(-c3cccc(C(=O)N4CCC[C@@H]4C(N)=O)c3)cc12` [Compound 4017] was greater than 1000 nM; that for `CNC(=O)c1c(-c2ccc(F)cc2)oc2cc(N(CCF)S(C)(=O)=O)c(-c3cccc(C(=O)N4CC[C@@H](F)C4)c3)cc12` [Compound 4024] was 76.5 nM; that for `CNC(=O)c1c(-c2ccc(F)cc2)oc2cc(N(CCF)S(C)(=O)=O)c(-c3cccc(C(=O)N4CCN(c5nnnn5-c5ccccc5)CC4)c3)cc12` [Compound 4008] was 107 nM. The compound `CNC(=O)c1c(-c2ccc(F)cc2)oc2cc(N(CCF)S(C)(=O)=O)c(-c3cccc(C(=O)N4CCCC4C(F)(F)F)c3)cc12` (stereo not shown) [Compound 4015] registered an EC50 of less than 100 nM. Same read-out and setting: with `CNC(=O)c1c(-c2ccc(F)cc2)oc2cc(N(CCF)S(C)(=O)=O)c(-c3cccc(C(=O)N4CCCC4c4ccc(N(C)C)cc4)c3)cc12` (stereo not shown) [Compound 4016] the figure was 84.8 nM; with `CNC(=O)c1c(-c2ccc(F)cc2)oc2cc(N(CCF)S(C)(=O)=O)c(-c3cccc(C(=O)N4CCN(c5nnnn5-c5ccccc5)C[C@@H]4C)c3)cc12` [Compound 4009], less than 100 nM; with `CNC(=O)c1c(-c2ccc(F)cc2)oc2cc(N(CCF)S(C)(=O)=O)c(-c3cccc(C(=O)N4CCCC4c4nccs4)c3)cc12` (stereo not shown) [Compound 4023], less than 100 nM. The same measure, in the same setting: the value for `CNC(=O)c1c(-c2ccc(F)cc2)oc2cc(N(CCF)S(C)(=O)=O)c(-c3cccc(C(=O)N4CCN(C(=O)OC(C)(C)C)CC4CC(=O)OC)c3)cc12` (stereo not shown) [Compound 4005] was less than 100 nM; that for `CNC(=O)c1c(-c2ccc(F)cc2)oc2cc(N(CCF)S(C)(=O)=O)c(-c3cccc(C(=O)N4CCC(=C(c5ccccc5)c5ccccc5)CC4)c3)cc12` [Compound 4011] was less than 100 nM; that for `CNC(=O)c1c(-c2ccc(F)cc2)oc2cc(N(CCF)S(C)(=O)=O)c(-c3cccc(C(=O)N4CCC(NC(=O)OC(C)(C)C)(C(F)(F)F)C4)c3)cc12` (stereo not shown) [Compound 4022] was less than 100 nM. Still for that read-out and setting: the value for `CNC(=O)c1c(-c2ccc(F)cc2)oc2cc(N(CCF)S(C)(=O)=O)c(-c3cccc(C(=O)N4CC(O)C[C@H]4C(=O)OCc4ccccc4)c3)cc12` (stereo partly shown) [Compound 4018] was 100 to 1000 nM; that for `CNC(=O)c1c(-c2ccc(F)cc2)oc2cc(N(CCF)S(C)(=O)=O)c(-c3cccc(C(=O)N4CCN(C(=C(C#N)C#N)c5ccccc5)CC4)c3)cc12` [Compound 4007] was less than 100 nM; that for `CNC(=O)c1c(-c2ccc(F)cc2)oc2cc(N(CCF)S(C)(=O)=O)c(-c3cccc(C(=O)N4CCN(c5ncccn5)CC4)c3)cc12` [Compound 4003] was less than 100 nM. `CNC(=O)c1c(-c2ccc(F)cc2)oc2cc(N(CCF)S(C)(=O)=O)c(-c3cccc(C(=O)N4CCC(=C(C#N)c5ccccn5)CC4)c3)cc12` [Compound 4014] displayed an EC50 of less than 100 nM.

`CCNc1cc2oc(-c3ccc(F)cc3)c(C(=O)NC)c2cc1-c1cccc(C(=O)N2CCNC(C#N)C2)c1` (stereo not shown) [Compound 2001] gave a 50% effective concentration (EC50) of 100 to 1000 nM. Same read-out and setting: the value for `CCN(CC)c1cc2oc(-c3ccc(F)cc3)c(C(=O)NC)c2cc1-c1cccc(C(=O)N2CC(F)(F)C2)c1` [Compound 1001] was 45.4 nM; that for `CNC(=O)c1c(-c2ccc(F)cc2)oc2cc(N(CCF)S(C)(=O)=O)c(-c3cccc(C(=O)N4CCC(=C(C#N)c5ccccc5)CC4)c3)cc12` [Compound 4013] was less than 100 nM. For the compound `CNC(=O)c1c(-c2ccc(F)cc2)oc2cc(N(CCF)S(C)(=O)=O)c(-c3cccc(C(=O)N4CC[C@@H](C#N)C4)c3)cc12` [Compound 4021], the concentration for a half-maximal effect (EC50) was greater than 1000 nM. The same measure, in the same setting: with `CNC(=O)c1c(-c2ccc(F)cc2)oc2cc(N(CCF)S(C)(=O)=O)c(-c3cccc(C(=O)N4CC[C@H](F)C4)c3)cc12` [Compound 4020] the figure was 45 nM; with `CNC(=O)c1c(-c2ccc(F)cc2)oc2cc(N(CCF)S(C)(=O)=O)c(-c3cccc(C(=O)N4CC(F)(F)C(F)(F)C4)c3)cc12` [Compound 4025], less than 100 nM. In turn, `CNC(=O)c1c(-c2ccc(F)cc2)oc2cc(N(CCF)S(C)(=O)=O)c(-c3cccc(C(=O)N4CCN(C5CC5)CC4)c3)cc12` [Compound 4002] gave a half-maximal effective concentration (EC50) of less than 100 nM. The same measure, in the same setting: the value for `CNC(=O)c1c(-c2ccc(F)cc2)oc2cc(N(CCF)S(C)(=O)=O)c(-c3cccc(C(=O)N4CCC(=C(c5ccccc5)c5nnc(C)o5)CC4)c3)cc12` [Compound 4012] was 27.1 nM; that for `CNC(=O)c1c(-c2ccc(F)cc2)oc2cc(N(CCF)S(C)(=O)=O)c(-c3cccc(C(=O)N4CC(F)(F)C[C@H]4C(N)=O)c3)cc12` [Compound 4019] was greater than 1000 nM.

Another series relates to HCV.
Assay: not given
The note with it: extended dosing of the combination regimens; cited from earlier work.
Regarding `CNC(=O)c1c(-c2ccc(F)cc2)oc2cc(N(CCO)S(C)(=O)=O)c(C3CC3)cc12` [HCV-796], the hepatic toxicity result is “hepatic toxicity observed”.

In another series the test system is HCV.
Assay: not given
Particulars: combination therapy; cited from earlier work.
alpha-interferon and ribavirin: the sustained efficacy was 40 % of patients.
